{"source": "patent US20070098648A1", "about": "“Treating mouth sores caused by dental braces with blobs of hydrophilic gums” (priority 2002, published 2007)", "key": {"mouth sores": {"system": "mouth sores", "test": "experimentation with amoxicillin on conventional patches", "format": "in vivo", "settings": "conventional amoxicillin powder for oral suspension, mixed into the patch and dried", "text": "Because use of antibiotics, antibacterials, and other pharmaceutical antimicrobials causes adverse side affects, experimentation with these medications has been limited. […] Conventional amoxicillin powder for preparation of oral suspension was used, which includes sugars and other excipients. The sugars act as a binder to the oral patch. The oral suspension is mixed into the patch or blob and dried. Preferably, the amoxicillin powder is mixed into a stronger than normal liquid before being added to the patch or blob."}, "[1]": {"test": "side effects of glycyrrhetinic acid in the quantities a person could use per day", "format": "in vivo, human", "settings": "in the quantities that a person could use per day", "text": "For medication to be placed in the patch or blob, any of the above-mentioned antimicrobials, or similar antimicrobials, may be used. […] The preferred quantity of glycyrrhetinic acid in each patch or blob is 5 to 7%."}}}
{"compound": "CC1(C)S[C@@H]2[C@H](NC(=O)[C@H](N)c3ccc(O)cc3)C(=O)N2[C@H]1C(=O)O", "note": "[amoxicillin]", "values": [{"measurement": "effect of amoxicillin on conventional patches", "setting": "mouth sores", "result": "works quite well"}]}
{"compound": "CC1(C)[C@@H](O)CC[C@]2(C)[C@H]3C(=O)C=C4[C@@H]5C[C@@](C)(C(=O)O)CC[C@]5(C)CC[C@@]4(C)[C@]3(C)CC[C@@H]12", "note": "[glycyrrhetinic acid]", "values": [{"measurement": "side effects", "setting": "[1]", "result": "no side affects have been discovered"}]}
